This note sets out measurements from BindingDB's records for doi:10.3109/14756366.2012.681650 (East China University of Science and Technology, 2013).

“And” between values parts separate entries of the source, which are not always exact repeats. Identical values can stand only once.

The target of the assay is T1, Interstitial collagenase [100-268] (Homo sapiens, UniProt P03956).
T1 construct: 100-268
T1 sequence (P03956 whole entry): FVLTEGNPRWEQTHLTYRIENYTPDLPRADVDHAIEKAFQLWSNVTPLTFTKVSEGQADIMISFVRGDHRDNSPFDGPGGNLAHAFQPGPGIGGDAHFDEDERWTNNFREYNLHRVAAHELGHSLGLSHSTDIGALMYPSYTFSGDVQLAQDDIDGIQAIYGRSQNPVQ
As to the kind of experiment: cd-MMP-1 Activity Assay. To be noted: pH 7.5. The procedure: The activity of cd-MMP-1 was measured using a fluorescence-based assay. It was performed in white 96-well half area microplate (Greiner) in a final volume of 100 μL. […] The reaction was initiated by the addition of 50 μl of quenched fluorogenic peptide substrate: Dnp-Pro-beta-cyclohexyl-Ala-Gly-Cys(Me)-His-Ala-Lys(Nma)-NH2 (final concentration 5 μM). The cd-MMP-1 activity was determined in an Synergy™ 2 Multi-Mode Microplate Reader(BioTek) at an excitation wavelength of 360 nm and an emission wavelength of 460 nm.
With `O=c1c(O)c(-c2cc(O)c(O)c(O)c2)oc2cc(O)cc(O)c12`, the IC50 came out at 2.92 µM.

Consider `CNC(=O)C(CCc1ccccc1)NC(=O)C(CC(=O)NO)CC(C)C` (stereo unspecified), for which the IC50 is 0.01 µM.

In the case of `O=c1c(O)c(-c2ccc(O)cc2)oc2cc(O)cc(O)c12`, the IC50 is 1.35 µM and 3.92 µM.

For `COc1ccc(S(=O)(=O)N2CC(C)(C)CN(S(=O)(=O)c3ccc(OC)cc3)C2C(=O)NO)cc1` [1,3-BIS-(4-METHOXY-BENZENESULFONYL)-5,5-DIMETHYL-HEXAHYDRO-PYRIMIDINE-2-CARBOXYLIC ACID HYDROXYAMIDE], the half-maximal inhibitory concentration (IC50) was determined as 0.013 µM.

As for `O=c1c(O)c(-c2ccc(O)cc2O)oc2cc(O)cc(O)c12` [2-(2,4-dihydroxyphenyl)-3,5,7-trihydroxychromen-4-one], the IC50 amounted to 4.85 µM.

For `O=c1cc(-c2ccc(O)c(O)c2)oc2cc(O)cc(O)c12` [2-(3,4-dihydroxyphenyl)-5,7-dihydroxy-4H-chromen-4-one], the IC50 amounted to 3.03 µM.
